Data on eight compounds can be found in PubChem BioAssay (NCI).

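Briefly, cells in 96-well plates were exposed to five compound concentrations for 48 h, and endpoints were estimated by linear interpolation. GI50: concentration for 50% inhibition of growth. TGI marks complete inhibition of growth.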 A value given as a limit tells only on which side of the number the result lay.

Among the test systems are SF-295 CNS; SK-MEL-28 melanoma; SK-MEL-2 melanoma; 786-0 renal; CCRF-CEM leukemia; UACC-257 melanoma; DU-145 prostate; HCT-15 colon; M14 melanoma; NCI-H226 lung.
Assay in all cases: NCI anticancer screen, dose series, 48 h

`COc1ccc(-c2cn[nH]c2-c2cc(OC)c3c(c2)OCCO3)cc1`: the GI50 with SF-295 CNS was 0.0735 µM; in the test on SK-MEL-28 melanoma, 2.12 µM; in the test with SK-MEL-2 melanoma, 0.0685 µM; in the test on 786-0 renal, 0.369 µM; in the test with CCRF-CEM leukemia, 0.298 µM; with UACC-257 melanoma, 14.8 µM. The GI50 with DU-145 prostate is 0.312 µM; in the test with HCT-15 colon it was 0.0635 µM; in the test with M14 melanoma, 0.0694 µM; with NCI-H226 lung, 2.07 µM. The TGI in the test with SF-295 CNS is 12.1 µM; in the test on SK-MEL-28 melanoma, 46.3 µM; with SK-MEL-2 melanoma it was 16.1 µM; in the test with 786-0 renal, 26.8 µM; with CCRF-CEM leukemia it was above 73.9 µM; in the test with UACC-257 melanoma it was 55.4 µM. Moreover, the TGI turned out to be 16.9 µM with DU-145 prostate, 22.4 µM in the test with HCT-15 colon, 21.1 µM in the test with M14 melanoma and 23.4 µM with NCI-H226 lung.

Regarding `O=C1c2ccccc2-n2c1nc1ccccc1c2=O`, the TGI is 18.8 µM with SF-295 CNS; 50.7 µM in the test on SK-MEL-28 melanoma; 22.9 µM with SK-MEL-2 melanoma; above 100 µM with 786-0 renal; above 100 µM with CCRF-CEM leukemia; 9.65 µM in the test with UACC-257 melanoma. In addition, the TGI was 24 µM with DU-145 prostate, above 81.3 µM in the test with HCT-15 colon, 11.1 µM in the test on M14 melanoma and above 80.1 µM in the test on NCI-H226 lung.

As to `COC(=O)CCC1=C(C)/C(=C/c2[nH]c(-c3ccc[nH]3)cc2OC)N=C1C`, the GI50 in the test on SF-295 CNS is 0.833 µM; with SK-MEL-28 melanoma, 0.869 µM; in the test on SK-MEL-2 melanoma it was 0.273 µM; with 786-0 renal, 0.653 µM; in the test with CCRF-CEM leukemia, 0.306 µM; in the test on UACC-257 melanoma it was 0.871 µM. For the same compound, the GI50 in the test on DU-145 prostate was 2.17 µM; in the test with HCT-15 colon, 0.265 µM; with M14 melanoma, 0.42 µM; with NCI-H226 lung, 0.38 µM. In addition, the TGI stood at 3.64 µM with SF-295 CNS; 3.55 µM in the test on SK-MEL-28 melanoma; 0.813 µM in the test on SK-MEL-2 melanoma; 3.72 µM with 786-0 renal; 6.5 µM with CCRF-CEM leukemia; 3.97 µM in the test with UACC-257 melanoma. For the same compound, the TGI was found to be 15.1 µM with DU-145 prostate, 1.95 µM with HCT-15 colon, 1.8 µM with M14 melanoma and 1.6 µM with NCI-H226 lung.

Take `O=C(O)CSc1ncccc1[N+](=O)[O-]`: the TGI with SF-295 CNS, in the test on SK-MEL-28 melanoma, with SK-MEL-2 melanoma, in the test with 786-0 renal, in the test on CCRF-CEM leukemia and with UACC-257 melanoma was above 100 µM each time. For the same compound, the TGI with DU-145 prostate, with HCT-15 colon, in the test with M14 melanoma and in the test on NCI-H226 lung was above 100 µM throughout.

Consider `CCOC(=O)C(/C=N\C(=S)Nc1ccc(OCC)cc1)=C(/O)c1ccccc1`, for which the TGI with SF-295 CNS, in the test with SK-MEL-28 melanoma, with SK-MEL-2 melanoma, in the test with 786-0 renal, in the test with CCRF-CEM leukemia and with UACC-257 melanoma was above 100 µM throughout. Besides, the TGI with DU-145 prostate, with HCT-15 colon, with M14 melanoma and in the test with NCI-H226 lung was above 100 µM throughout.

As for `COc1cc2nc(-c3ccc(C(F)(F)F)cc3)cc(OCCCN3CCCCC3)c2cc1OC`, the GI50 with SF-295 CNS was 0.53 µM; in the test on SK-MEL-28 melanoma, 1.26 µM; with SK-MEL-2 melanoma, 2.64 µM; in the test on 786-0 renal, 2.17 µM; in the test with CCRF-CEM leukemia, 1.83 µM; in the test with UACC-257 melanoma, 1.7 µM. The GI50 in the test with DU-145 prostate was 1.84 µM; with HCT-15 colon, 0.399 µM; with M14 melanoma, 0.327 µM; with NCI-H226 lung, 0.37 µM. For the same compound, the TGI with SF-295 CNS turned out to be 2.04 µM; with SK-MEL-28 melanoma, 2.95 µM; in the test with SK-MEL-2 melanoma, 8.89 µM; in the test with 786-0 renal, 6.59 µM; with CCRF-CEM leukemia, 10.6 µM; in the test with UACC-257 melanoma, 5.27 µM. In addition, the TGI amounted to 16.5 µM in the test on DU-145 prostate, 10.1 µM with HCT-15 colon, 1.26 µM with M14 melanoma and 3.51 µM in the test on NCI-H226 lung.

As for `CN(C)C(=O)O[C@@H]1CN[C@@H](C#Cc2cc3ncnc(Nc4ccc(OCc5cccc(F)c5)c(Cl)c4)c3s2)C1`, the GI50 in the test on SF-295 CNS is above 25 µM; in the test with SK-MEL-28 melanoma it was above 25 µM; in the test with SK-MEL-2 melanoma, above 25 µM; in the test with 786-0 renal it was 9.48 µM; in the test with CCRF-CEM leukemia it was 2.78 µM; in the test with UACC-257 melanoma, above 25 µM. In addition, the GI50 is above 25 µM with DU-145 prostate, above 25 µM in the test on HCT-15 colon, above 25 µM in the test with M14 melanoma and 9.22 µM with NCI-H226 lung. Besides, the TGI in the test on SF-295 CNS is above 25 µM; in the test on SK-MEL-28 melanoma, above 25 µM; with SK-MEL-2 melanoma, above 25 µM; with 786-0 renal, above 21.7 µM; in the test with CCRF-CEM leukemia, above 25 µM; in the test with UACC-257 melanoma, above 25 µM. Further, the TGI in the test with DU-145 prostate was above 25 µM; in the test on HCT-15 colon, above 25 µM; in the test on M14 melanoma, above 25 µM; with NCI-H226 lung it was above 18.4 µM.

For the compound `CCN(CCNc1ccc(C)c2sc3ccccc3c(=O)c12)CC(C)(C)O`, the GI50 in the test on SF-295 CNS is 3.77 µM; with SK-MEL-28 melanoma, 6.16 µM; in the test on SK-MEL-2 melanoma it was 11.9 µM; with 786-0 renal it was 8.31 µM; with CCRF-CEM leukemia it was 6.95 µM; in the test with UACC-257 melanoma, 2.15 µM. The GI50 in the test with DU-145 prostate was 15.4 µM; in the test on HCT-15 colon, 2.59 µM; in the test with M14 melanoma, 4.21 µM; in the test on NCI-H226 lung, 15.2 µM. Besides, the TGI stood at 20.2 µM in the test with SF-295 CNS; 17.8 µM in the test with SK-MEL-28 melanoma; 33 µM with SK-MEL-2 melanoma; 23 µM with 786-0 renal; 34.5 µM with CCRF-CEM leukemia; 5.43 µM in the test with UACC-257 melanoma. For the same compound, the TGI amounted to 38.2 µM in the test on DU-145 prostate, 7.78 µM with HCT-15 colon, 12.2 µM in the test with M14 melanoma and 33 µM in the test on NCI-H226 lung.
